Experimental data published in patent US20250205182A1, “COMPOSITIONS AND METHODS FOR IMPROVING GUT PERMEABILITY” (BRIGHTSEED, INC., priority 2022, published 2025).
“Also recorded” adds a separate entry of the source.

Test system: human transverse colon epithelial cells
Assay: Transepithelial electrical resistance (TEER) of transverse colon monolayers treated with TNFα
Type: cell-based
Details: for change in TEER as a result of TNF administration: with TNFα, 10, 20, 40 μM, after 48 hours, relative to t=0; for TEER: with TNF
Source text: Cell Information: Donor 5 Transverse Colon, HISC-0033, Passage 10. Plated onto 4×96-well RepliGut® transwell plates coated with thin hydrogel coating. 2× RepliGut® transwell plates had 1.0 μm pore size (Corning 3380) and 2× RepliGut® transwell plates had 0.4 μm pore size (Corning 7369).
Compound Information: TNFα was supplied by Allis Biosystems and reconstituted according to the manufacturer's instructions. All other compounds were provided by Brightseed in DMSO (Table 1). Stocks were created for each treatment (Table 2) so that the final concentration of an individual compound in the culture media was 0.1% media volume for all compounds.
Proliferative human transverse colon epithelial cells were plated in Altis Expansion media using Altis-established protocols onto 4×96-well RepliGut® transwell plates coated with a thin layer of hydrogel. Cultures were monitored every day using a bright field microscope. Transverse colon epithelial monolayers became confluent on Day 4, at which point media was changed to Altis Differentiation media. The cells were cultured for an additional 2 days. Brightseed compounds and TNFα, listed in Table 2, were diluted in Altis Differentiation media, mixed well, and added to apical and basal compartment of transwell cultures at t=0 hours. All conditions were performed in triplicate. Cells were treated with compounds for a total of 48 hours.
Transepithelial electrical resistance was measured in all transwell cultures at t=0 hours prior to the addition of compounds to determine baseline TEER using an Epithelial Volt/Ohm Meter (World Precision Instruments, EVOM2) and STX100C96 Electrode. TEER was also measured at t=24 hours, t=45 hours, and t=48 hours. The surface area of a 96-well transwell is 0.143 cm^2 per well. Corrected TEER was calculated using the formula below.
(Raw measured TEER of sample transwell−Raw measured TEER of blank transwell)×Surface Area
Statistical analysis was performed using GraphPad Prism software version 9.4.1 (GraphPad Inc., La Jolla, CA, USA). Two-way ANOVA of means from n=3 samples per group was performed to measure simple effects within treatment groups. Tukey's range test was performed to correct for multiple comparisons. Differences between the groups were considered significant at p<0.05.

[1] = FIGS. 1-12 (TEER and permeability)

Structure (SMILES)	optimal concentration of the study [1] [µM]	rank of effect among the test articles [1]	change in TEER as a result of TNF administration	change in TEER as a result of TNF administration (listed as NCT)	TEER (10 μM)	TEER (20 and 40 μM)	change in TEER as a result of TNF administration (listed as NFT)
O=C(/C=C/c1ccc(O)c(O)c1)NCCc1ccc(O)cc1 [Compound 1, N-trans-caffeoyltyramine]	40	greatest effect	dose-dependent and statistically significant reversal of this decrease	improved the change in TEER as a result of TNF administration in a dose-dependent manner; also recorded: protected against (a) decreased TEER			
COc1cc(/C=C/C(=O)NCCc2ccc(O)cc2)ccc1O [Compound 2, N-trans-feruloyltyramine]			dose-dependent and statistically significant reversal of this decrease		improved TEER	did not show the same dose-dependent effect	protected against (a) decreased TEER
